Experimental data published in patent publication US20130005644A1, “CYCLIC AGONISTS AND ANTAGONISTS OF C5A RECEPTORS AND G PROTEIN-COUPLED RECEPTORS” (PROMICS PTY LIMITED, priority 1997, published 2013).
Where two headings read alike, the source gives them in different places. Where a SMILES comes first, the peptide text is derived from it. [ ]: non-standard residue; d: D form. dCha = N[C@H](CC1CCCCC1)C(=O)O

T1: C5a receptor (Homo sapiens, UniProt P21730)
T1 construct: endogenous in cells; host or cells: fresh human polymorphonuclear leukocytes (PMNs), intact cells
T1 sequence (P21730 1-350): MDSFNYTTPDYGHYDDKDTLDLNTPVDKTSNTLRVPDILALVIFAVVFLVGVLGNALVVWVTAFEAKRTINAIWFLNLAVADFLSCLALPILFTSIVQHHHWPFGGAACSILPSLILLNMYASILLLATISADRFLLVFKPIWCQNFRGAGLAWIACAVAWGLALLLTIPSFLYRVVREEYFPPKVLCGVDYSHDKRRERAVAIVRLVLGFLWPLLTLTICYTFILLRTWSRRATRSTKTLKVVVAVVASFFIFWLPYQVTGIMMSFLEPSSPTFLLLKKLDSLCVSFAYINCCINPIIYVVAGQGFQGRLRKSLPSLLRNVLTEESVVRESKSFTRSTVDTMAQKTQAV

T2: C5aR (Homo sapiens, UniProt P21730)
T2 construct: endogenous in cells; host or cells: fresh human polymorphonuclear leukocytes (PMNs), intact cells
T2 sequence (P21730 1-350): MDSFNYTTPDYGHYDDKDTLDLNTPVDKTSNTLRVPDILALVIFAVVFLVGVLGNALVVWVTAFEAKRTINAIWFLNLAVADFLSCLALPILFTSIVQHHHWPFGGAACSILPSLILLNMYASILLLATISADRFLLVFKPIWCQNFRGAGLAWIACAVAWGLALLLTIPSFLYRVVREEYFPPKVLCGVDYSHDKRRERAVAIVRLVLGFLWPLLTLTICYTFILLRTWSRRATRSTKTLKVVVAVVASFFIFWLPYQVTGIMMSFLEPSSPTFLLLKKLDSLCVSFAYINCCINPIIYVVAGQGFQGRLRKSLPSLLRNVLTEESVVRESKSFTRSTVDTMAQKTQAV


Columns and labels:
[1] = molecular target: T1, C5a receptor; assay: Myeloperoxidase release from human PMNs mediated by 100 nM C5a (antagonist potency); format: cell-based; settings: for IC50: 50% inhibition of C5a (100 nM)-caused release of MPO from PMNs, mean ± SE, read-out: pD2 ± SE (antagonist potency) (converted)
[2] = molecular target: T1, C5a receptor; assay: Agonist activity in human PMNs; format: cell-based
Experimental: Cells were isolated as previously described (Sanderson et al, 1995) and incubated with cytochalasin B (5 μg/mL, 15 min, 37° C.). Hank's Balanced Salt solution containing 0.15% gelatin and peptide was added on to a 96 well plate (total volume 100 μL/well), followed by 25 μL cells (4×10^6/mL). To assess the capacity of each peptide to antagonise C5a, cells were incubated for 5 min at 37° C. with each peptide, followed by addition of C5a (100 nM) and further incubation for 5 min. Then 50 μL of sodium phosphate (0.1M, pH 6.8) was added to each well, the plate was cooled to room temperature, and 25 μL of a fresh mixture of equal volumes of dimethoxybenzidine (5.7 mg/mL) and H2O2 (0.51%) was added to each well. The reaction was stopped at 10 min by addition of 2% sodium azide. Absorbances were measured at 450 nm in a Bioscan 450 plate reader, corrected for control values (no peptide), and analysed by non-linear regression.

[3] = molecular target: T2, C5aR; assay: Receptor-binding assay: inhibition of 125I-C5a binding to intact human PMNs
[4] = system: carrageenan-induced paw oedema in Wistar rats; assay: Carrageenan-induced rat paw oedema; format: in vivo; settings: 1 mg/kg i.p. 30 min prior to carrageenan, after 180 and 270 min
Experimental: Alternatively, a routine carrageenan paw oedema was developed in Wistar rats by administering a pedal injection of carrageenan to elicit oedema which is visible in 2 h and maximised in 4 h. […] See Fairlie, D. P. et al (1987). Also see Walker and Whitehouse (1978).
Paw swelling was measured for up to 4.5 hr.

[5] = molecular target: T2, C5aR; settings: cited from earlier work
[6] = molecular target: T1, C5a receptor; settings: human PMN; C5a agonist analogues; read-out: PMN Enzyme Release EC50; cited from earlier work
[7] = system: human fetal artery; settings: C5a agonist analogues; cited from earlier work
[8] = system: C5a-induced neutropenia in Wistar rats; assay: C5a-induced neutropenia in vivo; settings: 1 mg/kg i.v. given prior to 2 μg C5a i.v.
Experimental: Compounds were evaluated in an acute model of C5a-induced neutropenia. Transient neutropenia maximises 5 min after i.v. C5a and is profound, with >90% of circulating neutrophils disappearing from circulation at effective doses of C5a, as shown in FIG. 8. The neutropenia is due to transient adherence of circulating neutrophils to the vascular endothelium.

[9] = system: LPS-induced neutropenia in Wistar rats; assay: LPS-induced neutropenia and haematocrit change; format: in vivo
Experimental: LPS causes rapid neutropenia in rats. If this effect of LPS is blocked by C5a antagonists, then C5a may be of major importance in the acute effects of LPS, and the results shown in FIG. 9 were in agreement with this hypothesis. C5a antagonists were injected (bolus i.v.) 10 min prior to challenge with LPS. Rats were anaesthetised, and blood samples (0.3 ml) were taken for measurements of PMNs. PMNs are isolated and quantified.

[10] = dose range 0.1 nM-1 mM, human PMNs
[11] = 50% inhibition in the binding of [125I]C5a to intact PMNs, mean ± SE, read-out: pD2 ± SE (binding) (converted)
[12] = PMN C5aR, Finch et al, 1997, read-out: Binding Affinity IC50

Agonist Activity [2, 10]	Molecule	IC50 [5, 12] [µM]	EC50 [6] [µM]	EC50 [7] [µM]	also measured
no agonist properties	CN[C@@H](Cc1ccccc1)C(=O)N[C@@H](CCCCN)C(=O)N1CCC[C@H]1C(=O)N[C@H](CC1CCCCC1)C(=O)N[C@@H](Cc1c[nH]c2ccccc12)C(=O)N[C@H](CCCNC(=N)N)C(=O)O [Compound 7, N-methylphenylalanine-lysine-proline-D-cyclohexylalanine-tryptophan-D-arginine, reference compound]				antagonist activity against C5a and agonist decapeptide analogue 4 ([1]; human PMNs): shows antagonist activity; Agonist Activity ([2]; dose range 0.1 nM-1 mM, human PMNs, listed as SEQ. ID NO: 7): No
No	CN[C@@H](Cc1ccccc1)C(=O)N[C@@H](CCCCN)C(=O)N1CCC[C@H]1C(=O)N[C@H](CC1CCCCC1)C(=O)N[C@@H](Cc1c[nH]c2ccccc12)C(=O)N[C@H](CCCNC(=N)N)C(N)=O [Compound 8, MeFKP(dCha) Wr-CONH2]				reduction of receptor-affinity versus 7 ([3]; conversion to the amide): approximately 5 fold; reduction of antagonist activity versus 7 ([1]; conversion to the amide): approximately 5 fold
No	CN[C@@H](Cc1ccccc1)C(=O)N[C@@H](CCCCN)C(=O)N1CCC[C@H]1C(=O)N[C@H](CC1CCCCC1)C(=O)N[C@@H](Cc1c[nH]c2ccccc12)C(=O)N[C@@H](CCCNC(=N)N)C(=O)O [Compound 9, MeFKP(dCha)WR]				
No	CC(=O)N[C@@H](Cc1ccccc1)C(=O)N[C@H]1CCCCNC(=O)[C@@H](CCCNC(=N)N)NC(=O)[C@H](Cc2c[nH]c3ccccc23)NC(=O)[C@@H](CC2CCCCC2)NC(=O)[C@@H]2CCCN2C1=O [Compound 11, Ac-F-[KP(dCha)Wr]				Agonist Activity ([2]; Table 5, cyclic molecules): No
No	CC(=O)N[C@@H](Cc1ccccc1)C(=O)N[C@H]1CCCNC(=O)[C@@H](CCCNC(=N)N)NC(=O)[C@H](Cc2c[nH]c3ccccc23)NC(=O)[C@@H](CC2CCCCC2)NC(=O)[C@@H]2CCCN2C1=O [Compound 12, Ac-F-[OP(dCha)Wr]				increase in receptor-binding affinity over decapeptide C-terminus of C5a (1) [3]: 10^4; times less active than 17 in vitro as a C5a antagonist in PMNs [1]: 100 times; Agonist Activity ([2]; Table 5, cyclic molecules): No; development of carrageenan paw oedema (paw swelling) [4]: significantly inhibits development of the oedema
	N=C(N)NCCC[C@@H]1NC(=O)[C@H](Cc2c[nH]c3ccccc23)NC(=O)[C@@H](CC2CCCCC2)NC(=O)[C@@H]2CCCN2C(=O)[C@@H](NC(=O)[C@@H](N)Cc2ccccc2)CCNC1=O [Compound 15, F-[X^2PdChaWR]]				IC50 [3, 11]: 0.316 µM; IC50 ([3]; Table 5, cyclic molecules, read-out: Receptor Affinity): 0.3 µM; IC50 [1]: 0.0437 µM; inhibition of the action of C5a and the binding of 125I-C5a to its receptor ([1]; in vitro on human PMNs): potent inhibitors at nM concentrations; Agonist Activity ([2]; Table 5, cyclic molecules): No
	CC(=O)N[C@@H](Cc1ccccc1)C(=O)N[C@H]1CCCCNC(=O)[C@H](CCCNC(=N)N)NC(=O)[C@H](Cc2c[nH]c3ccccc23)NC(=O)[C@@H](CC2CCCCC2)NC(=O)[C@@H]2CCCN2C1=O [Compound 18]				Agonist Activity ([2]; Table 5, cyclic molecules): No
	N=C(N)NCCC[C@H]1NC(=O)[C@H](Cc2c[nH]c3ccccc23)NC(=O)[C@@H](CC2CCCCC2)NC(=O)[C@@H]2CCCN2C(=O)[C@H](Cc2c[nH]c3ccccc23)NC(=O)[C@H](Cc2ccccc2)NC1=O [Compound 19, [FWPdChaWr]] (cyclo(FWP[dCha]W[dR]); ring closure inferred)				pD2 ± SE (binding) ([3]; 50% inhibition in the binding of [125I]C5a to intact PMNs, mean ± SE): 4.37 ± 0.36
	N=C(N)NCCC[C@H]1NC(=O)[C@H](Cc2c[nH]c3ccccc23)NC(=O)[C@@H](CC2CCCCC2)NC(=O)[C@@H]2CCCN2C(=O)[C@@H](NC(=O)[C@@H](N)Cc2ccccc2)CCCCNC1=O [Compound 26, F-[KPdChaWr]]				IC50 [3, 11]: 8.13 µM; IC50 [1]: 2.82 µM
	N=C(N)NCCC[C@@H]1NC(=O)[C@H](Cc2c[nH]c3ccccc23)NC(=O)[C@@H](CC2CCCCC2)NC(=O)[C@@H]2CCCN2C(=O)[C@@H](NC(=O)[C@@H](N)Cc2ccccc2)CCCCNC1=O [Compound 28, F-[KPdChaWR]]				IC50 [3, 11]: 0.316 µM; IC50 [1]: 0.204 µM
	C5a12-20-ahxYSFKPMPLaR [Compound 6]	0.07	0.7	0.08	
	C5a37-46-ahxYSFKPMPLaR [Compound 5]	0.7	5.9	0.06	
	C5a65-74 (ISHKDMQLGR) [Compound 1, decapeptide C-terminus of C5a]	> 1000	> 1000	> 1000	IC50 ([5]; literature values (Finch et al, 1997; Kawai et al, 1991), read-out: Receptor Affinity IC50): > 1000 µM
	F-[OPdChaWR]				C5a-induced neutropenia [8]: inhibits C5a-induced neutropenia; LPS-induced neutropenia ([9]; 1 mg/kg i.v. 10 min prior to i.v. LPS, rats): inhibits neutropenia; LPS-induced changes in haematocrit ([9]; 0.03-10 mg/kg i.v., 10 min prior to LPS 1 mg/kg i.v., Wistar rats): inhibition of LPS-induced neutropenia and changes in haematocrit
	YSFKDMPLaR [Compound 3, C5a agonist analogue]	3.7	72	0.5	
	YSFKDMQLGR [Compound 2, C5a agonist analogue]	1.3	92	9.6	
Yes	C5a: human recombinant C5a, 74 amino acid complement glycoprotein (protein) TLQKKIEEIAAKYKHSVVKKCCYDGACVNNDETCEQRAARISLGPRCIKAFTECCVVASQLRANISHKDMQLGR	0.0006	0.03	0.02	
